In ChEMBL document CHEMBL1201862, “PubChem BioAssay data set” (2004):
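96-well plates; 48 h exposure; 5 concentrations. Endpoints by linear interpolation between flanking doses. Not reached: highest tested concentration assigned. The concentration for 50% growth inhibition is given as GI50.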 Active and inactive are the calls of the source. Rule as the data show it: active = GI50 up to about 1.1 µM and inactive = higher.

How the values were obtained:
Test in all cases: NCI tumour cell line growth inhibition, 48 h
[1] = system: KM12
[2] = system: NCI-H522
[3] = system: UO-31
[4] = system: SF-295
[5] = system: UACC-257
[6] = system: OVCAR-8
[7] = system: U-251
[8] = system: IGROV-1
[9] = system: HOP-62
[10] = system: SK-MEL-28
[11] = system: LOX IMVI
[12] = system: RXF 393
[13] = system: ACHN
[14] = system: EKVX
[15] = system: HCC 2998
[16] = system: RPMI-8226

Compound	GI50 [1]	GI50 [2]	GI50 [3]	GI50 [4]	GI50 [5]	GI50 [6]	GI50 [7]	GI50 [8]	GI50 [9]	GI50 [10]	GI50 [11]	GI50 [12]	GI50 [13]	GI50 [14]	GI50 [15]	GI50 [16]
COc1ccc(OC)c(/C=N/N=C(\N)NO)c1	22.4 µM (inactive)	14.3 µM (inactive)	14.2 µM (inactive)	21.9 µM (inactive)	30.5 µM (inactive)	27.7 µM (inactive)	34.4 µM (inactive)	29.6 µM (inactive)	29.6 µM (inactive)	75.7 µM (inactive)	2.84 µM (inactive)	39.5 µM (inactive)	12.3 µM (inactive)	13.3 µM (inactive)		
c1ccc(C(c2ccccc2)c2ccncc2)cc1	> 100 µM (inactive)		69.5 µM (inactive)	> 100 µM (inactive)	61 µM (inactive)	> 100 µM (inactive)	> 100 µM (inactive)	> 100 µM (inactive)	> 100 µM (inactive)	> 100 µM (inactive)	> 100 µM (inactive)		> 100 µM (inactive)	> 100 µM (inactive)	61.7 µM (inactive)	> 100 µM (inactive)
OC1(C(Sc2ccccc2)Sc2ccccc2)CCCCCC1	34.9 µM (inactive)	11.5 µM (inactive)	3.13 µM (inactive)	26.8 µM (inactive)	26.9 µM (inactive)	38.8 µM (inactive)	21.8 µM (inactive)		21.9 µM (inactive)	56.1 µM (inactive)	19.3 µM (inactive)	> 10 µM (inactive)	26 µM (inactive)	21.2 µM (inactive)		21.5 µM (inactive)
Cc1cc(C)nc(NS(=O)(=O)c2ccc(Nc3c4ccccc4nc4c(C(=O)Nc5ccc(S(N)(=O)=O)cc5)cccc34)cc2)n1	63.7 µM (inactive)	30.8 µM (inactive)	37 µM (inactive)	> 100 µM (inactive)	> 100 µM (inactive)	> 100 µM (inactive)	58.3 µM (inactive)	> 100 µM (inactive)	> 100 µM (inactive)	83.9 µM (inactive)	75.9 µM (inactive)	38 µM (inactive)	> 100 µM (inactive)	35.1 µM (inactive)		> 100 µM (inactive)
CC(C)(C)c1ccc(OCCOCCOc2ccc(C(C)(C)C)cc2S(=O)(=O)Nc2ccc([N+](=O)[O-])cc2)c(S(=O)(=O)Nc2ccc([N+](=O)[O-])cc2)c1	7.53 µM (inactive)		4.45 µM (inactive)	8.47 µM (inactive)	42.1 µM (inactive)	9.95 µM (inactive)	7.28 µM (inactive)	12.7 µM (inactive)	81.7 µM (inactive)	15.5 µM (inactive)	23.4 µM (inactive)	19.2 µM (inactive)	7.13 µM (inactive)	62.5 µM (inactive)	8.73 µM (inactive)	
CC(=O)OC1CCC2C(=CCC3C2(C)C(=O)CC2(C)C(C4(C)OC(C(C)C)=CC4=O)C(O)CC32C)C1(C)C (stereo unspecified)	> 10 µM (inactive)	35.5 µM (inactive)	40.3 µM (inactive)			43.7 µM (inactive)	39.4 µM (inactive)	62.4 µM (inactive)	> 100 µM (inactive)				40.7 µM (inactive)	57.3 µM (inactive)		22 µM (inactive)
CC(O)C(NC(=O)c1ccccc1)C(=O)N(Cc1ccccc1)Cc1ccccc1 (stereo unspecified)	> 100 µM (inactive)	7.03 µM (inactive)	> 100 µM (inactive)	94.4 µM (inactive)	80.4 µM (inactive)	> 100 µM (inactive)	> 100 µM (inactive)	> 100 µM (inactive)	> 100 µM (inactive)	> 100 µM (inactive)	> 100 µM (inactive)		> 100 µM (inactive)	> 100 µM (inactive)	> 100 µM (inactive)	28.9 µM (inactive)
Cc1ccc(Sc2ccccc2N)cc1	25.5 µM (inactive)	14.8 µM (inactive)	12.8 µM (inactive)	78.2 µM (inactive)	33.4 µM (inactive)	52.2 µM (inactive)	67.3 µM (inactive)	37.7 µM (inactive)	6.53 µM (inactive)	67 µM (inactive)	36.8 µM (inactive)	18.7 µM (inactive)	37.7 µM (inactive)	54.6 µM (inactive)	40.8 µM (inactive)	19.3 µM (inactive)
Oc1cc2c(cc1O)-c1[nH]ncc1CC2	49.5 µM (inactive)	11.7 µM (inactive)	18.4 µM (inactive)	49.1 µM (inactive)	58.7 µM (inactive)	37.9 µM (inactive)	18.2 µM (inactive)	31.6 µM (inactive)	55.5 µM (inactive)	58.3 µM (inactive)	33.5 µM (inactive)		21.6 µM (inactive)	10.2 µM (inactive)	22.4 µM (inactive)	
CCOC(=O)NC/C=C/CO	> 100 µM (inactive)	> 100 µM (inactive)	> 100 µM (inactive)		> 100 µM (inactive)	> 100 µM (inactive)	> 100 µM (inactive)	> 100 µM (inactive)	> 100 µM (inactive)	> 100 µM (inactive)		> 100 µM (inactive)	> 100 µM (inactive)		> 100 µM (inactive)	> 100 µM (inactive)
O=C(Nc1nc2ncn(CCI)c2c(=O)[nH]1)c1ccccc1	> 100 µM (inactive)	28.3 µM (inactive)	> 90.4 µM (inactive)	34 µM (inactive)	> 100 µM (inactive)	31.2 µM (inactive)	28.3 µM (inactive)	> 100 µM (inactive)	30.1 µM (inactive)	> 100 µM (inactive)	> 100 µM (inactive)	26.9 µM (inactive)	> 75 µM (inactive)	> 80.4 µM (inactive)	> 100 µM (inactive)	> 100 µM (inactive)
Cc1cc2occ(-c3ccc(Cl)cc3)c2c(=O)o1	> 100 µM (inactive)	66.5 µM (inactive)	58.1 µM (inactive)	> 100 µM (inactive)	> 100 µM (inactive)	> 100 µM (inactive)	> 100 µM (inactive)	> 100 µM (inactive)	> 100 µM (inactive)	> 100 µM (inactive)	72.8 µM (inactive)	> 100 µM (inactive)	> 100 µM (inactive)	> 100 µM (inactive)		61.4 µM (inactive)
CC(Oc1ccc(OCC2CCCCC2)cc1)C(=O)O (stereo unspecified)	> 100 µM (inactive)	> 100 µM (inactive)	> 100 µM (inactive)	> 100 µM (inactive)	> 100 µM (inactive)	> 100 µM (inactive)	> 100 µM (inactive)	> 100 µM (inactive)		> 100 µM (inactive)	> 100 µM (inactive)		> 100 µM (inactive)			
CCc1cccc(C(C)C)c1NC(=O)CCl	> 100 µM (inactive)	35.6 µM (inactive)	> 100 µM (inactive)	> 100 µM (inactive)	> 100 µM (inactive)		85.1 µM (inactive)	> 100 µM (inactive)		> 100 µM (inactive)	80.7 µM (inactive)		90.2 µM (inactive)	> 100 µM (inactive)		> 100 µM (inactive)
Cc1c(-c2coc(-c3ccc(Cl)cc3)n2)c(=O)n(-c2ccccc2)n1C	> 100 µM (inactive)	> 100 µM (inactive)	> 100 µM (inactive)	> 100 µM (inactive)	> 100 µM (inactive)	> 100 µM (inactive)	> 100 µM (inactive)	> 100 µM (inactive)	> 100 µM (inactive)	> 100 µM (inactive)	> 100 µM (inactive)		> 100 µM (inactive)	> 100 µM (inactive)	9.4 µM (inactive)	> 100 µM (inactive)
C[C@H]1C=C2C(=O)O[C@H]3CC[C@@H](C1)[C@@]23O	2.92 µM (inactive)	2.51 µM (inactive)	18.2 µM (inactive)	4.4 µM (inactive)	10.3 µM (inactive)	3.39 µM (inactive)	6.44 µM (inactive)	6.03 µM (inactive)	> 10 µM (inactive)	4.07 µM (inactive)	2.55 µM (inactive)	2.79 µM (inactive)	4.97 µM (inactive)	2.67 µM (inactive)	13.8 µM (inactive)	29.6 µM (inactive)
CC1OC(CC2C=CCc3c(O)c4c(c(O)c32)C(=O)c2ccccc2C4=O)CC(NC(=O)C(F)(F)F)C1O (stereo unspecified)	15.9 µM (inactive)	18.1 µM (inactive)	20 µM (inactive)	5.74 µM (inactive)	7.93 µM (inactive)	4.22 µM (inactive)	3.94 µM (inactive)	18.9 µM (inactive)	6.49 µM (inactive)	4.55 µM (inactive)	6.73 µM (inactive)	2.52 µM (inactive)	10.9 µM (inactive)	12.6 µM (inactive)	29.4 µM (inactive)	4.28 µM (inactive)
CCN(CCCl)CCCNc1c2ccccc2nc2ccc(OC)cc12	0.141 µM (active)	0.144 µM (active)	1.29 µM (inactive)	0.115 µM (active)	1.16 µM (inactive)	0.0857 µM (active)	0.199 µM (active)	0.102 µM (active)	0.605 µM (active)	0.743 µM (active)	0.129 µM (active)	0.215 µM (active)	0.149 µM (active)	1.02 µM (active)	0.535 µM (active)	0.0637 µM (active)
COc1cc(/C=C/c2ccncc2)cc(OC)c1OC	> 100 µM (inactive)	32.3 µM (inactive)	24.4 µM (inactive)	> 100 µM (inactive)	> 100 µM (inactive)	> 100 µM (inactive)	> 100 µM (inactive)	74.6 µM (inactive)	53.6 µM (inactive)	> 100 µM (inactive)	72.4 µM (inactive)	26.4 µM (inactive)	> 100 µM (inactive)	13.1 µM (inactive)		52.4 µM (inactive)
